Test results: patent publication US7732666B1, “O-methyltransferase gene from sorghum cloning, expression, transformation and characterization” (priority 2006, dated 2010)
Where two headings read alike, the source gives them in different places.

B1: SbOMT1 (Sorghum bicolor) (protein)
chain: MASYTSTSGQFAVGKVAAANQDDETCMHALKLLGGLAVPFTIKAVIELGIMDLLLAADRAMTAEALTAALLCPAPAPAAAAAMVDRMLRFLASHGVVRCATESEELGSDDGKSCRRYAAAPVCKWFARGGGVESVVPMGFWMTSTTNMETWHNIKDGVLAGETPFDKAYGMPVFEYLGANGTMNTLFNEAMASHSMIITKRLLEVFRGFENYSVLVDVGGGNGTTMQMIRSQYENISGINYDLPHVIAQASPIEGVEHVAGNMFDNIPRGDAIILKWILHNWGDKECVKILKNCYTALPVNGTVIILEYILPETPEETLASQLAFDFDLGMMLFFGASGKERTEKELLELAREAGFSGDYTATYIFANVWAHEFTK

Legend:
[1] = molecular target: T1, SbOMT3 (Sorghum bicolor, UniProt A8QW53, DUP296-296); assay type: biochemical; settings: for Relative Activity (%) of Recombinant SbOMT3: relative to 5-n-pentyl-resorcinol = 100%, 30 min at 30° C.; for Km: recombinant SbOMT3, alkylresorcinols and co-substrate SAM
T1 construct: full-length open reading frames for all three OMTs were overexpressed in E. coli as N-terminal polyhistidine fusions; polyhistidine (pET15b) (N); made in house; host or cells: E. coli BL21/DE3
Method: (§1) Substrate specificities and kinetic parameters for recombinant OMTs were determined using to a modified protocol based on Wang and Pichersky (1999. Arch. Biochem. Biophys. 368: 172-180). All enzymatic assays consisted of 90 μL of assay buffer (250 mM Tris-HCl, pH 7.5, 10 mM DTT), 200 μL of purified enzyme preparation (200 μg protein/ml in), 5 μL of a 10 mM substrate stock solution (dissolved in 100% ethanol), and 5 μL of S-[methyl-^14C] adenosyl-L-methionine (40-60 mCi/mmol, 0.1 mCi/ml; ICN Biomedicals, Irvine, Calif.). Reactions were incubated for 30 min at 30° C. using a Thermomixer (Brinkman Instrument, Westbury, N.Y.), then quenched by addition of 25 μL of 6 N HCl. Radiolabeled products were subsequently extracted by the addition of 1 mL of hexane:ethyl acetate (1:1 vol/vol), and 300 μL of the (upper) organic phase were transferred to scintillation vials containing 5 mL of Ultima Gold scintillation fluid (Packard BioScience, Meriden, CT). Scintillation counts were performed using a Tri-Carb 1600TR Liquid Scintillation Analyzer (Packard BioScience). Protein concentrations and time points used for activity measurements were controlled to insure linearity of the assays. Kinetic parameters were determined from assays performed in triplicate as described above, but with substrate concentrations ranging from 10 μM to 10 mM. Data from enzyme kinetics experiments were fit to the Michaelis-Menten equation using the SigmaPlot v. 9.01 enzyme kinetics module (Systat Software, Inc., Point Richmond, Calif.).
(§2) A panel of benzene-derivatives containing different functional groups and substitution patterns were tested in enzyme assays with all three recombinant enzymes (Table 2), including a series of 5-n-alkylresorcinols of increasing chain length, as well as 5-n-pentadecatrienyl resorcinol, the proposed sorgoleone pathway intermediate and in vivo substrate for the participating OMT enzyme (FIG. 1). For these analyses, full-length open reading frames for all three OMTs were overexpressed in E. coli as N-terminal polyhistidine fusions, purified using an activated Ni-column, then radiometrically assayed in the presence of different substrates as described by Wang and Pichersky (1999, supra), with slight modifications.

[2] = molecular target: T2, SbOMT1 (Sorghum bicolor, UniProt A8QW52); assay: OMT enzymatic assay (radiometric, 14C-SAM) with recombinant SbOMT1; assay type: biochemical; settings: relative to eugenol = 100%; 30 min at 30° C.
T2 construct: full-length open reading frames for all three OMTs were overexpressed in E. coli as N-terminal polyhistidine fusions; polyhistidine (pET15b) (N); made in house; host or cells: E. coli BL21/DE3
T2 sequence (A8QW52 1-376): B1 chain

[3] = system: human breast cancer and murine lymphoid neoplasma cell lines; settings: cited from earlier work
[4] = system: CCCCc1cc(O)cc(O)c1; assay: purified protein, by the assay type; assay type: biochemical, Sorghum bicolor; settings: other: recombinant SbOMT3, alkylresorcinols and co-substrate SAM; pH 7.5; 30.0 °C
Method: as §1, §2

[5] = system: CCCCCCCc1cc(O)cc(O)c1; assay: purified protein, by the assay type; assay type: biochemical, Sorghum bicolor; settings: other: recombinant SbOMT3, alkylresorcinols and co-substrate SAM; pH 7.5; 30.0 °C
Method: as §1, §2

[6] = system: CCCCCCc1cc(O)cc(O)c1; assay: purified protein, by the assay type; assay type: biochemical, Sorghum bicolor; settings: other: recombinant SbOMT3, alkylresorcinols and co-substrate SAM; pH 7.5; 30.0 °C
Method: as §1, §2

[7] = system: CCCCCc1cc(O)cc(O)c1; assay: purified protein, by the assay type; assay type: biochemical, Sorghum bicolor; settings: other: recombinant SbOMT3, alkylresorcinols and co-substrate SAM; pH 7.5; 30.0 °C
Method: as §1, §2

[8] = molecular target: T2, SbOMT1; assay: GC-MS analysis of products of recombinant SbOMT1 reacted with resveratrol; assay type: biochemical
From the text: (§3) The products from these reactions were then chemically analyzed by gas chromatography/mass spectroscopy. […] Thus, only about 2% of the product obtained was pterostilbene; 88% was 3,5-dihydroxy-4′-methoxystilbene (FIG. 7B).

[9] = system: Candida albicans, Cryptococcus neoformans, Staphylococcus aureus, and methicillin-resistant S. aureus; settings: Rimando et al. 2003a; cited from earlier work
[10] = system: Phaeoacremonium aleophilum, Phaeomoniella chlamydospora, Libertella blepharis, Fomitiporia punctata and Stereum hirsutum; settings: Mazzullo et al. 2000; cited from earlier work
[11] = molecular target: T3, SbOMT2 (Sorghum bicolor, UniProt A8QW51); assay: Reaction of recombinant SbOMT2 with resveratrol, GC-MS analysis; assay type: biochemical
T3 construct: full-length open reading frames for all three OMTs were overexpressed in E. coli as N-terminal polyhistidine fusions; polyhistidine (pET15b) (N); made in house; host or cells: E. coli BL21/DE3
T3 sequence (A8QW51 1-372): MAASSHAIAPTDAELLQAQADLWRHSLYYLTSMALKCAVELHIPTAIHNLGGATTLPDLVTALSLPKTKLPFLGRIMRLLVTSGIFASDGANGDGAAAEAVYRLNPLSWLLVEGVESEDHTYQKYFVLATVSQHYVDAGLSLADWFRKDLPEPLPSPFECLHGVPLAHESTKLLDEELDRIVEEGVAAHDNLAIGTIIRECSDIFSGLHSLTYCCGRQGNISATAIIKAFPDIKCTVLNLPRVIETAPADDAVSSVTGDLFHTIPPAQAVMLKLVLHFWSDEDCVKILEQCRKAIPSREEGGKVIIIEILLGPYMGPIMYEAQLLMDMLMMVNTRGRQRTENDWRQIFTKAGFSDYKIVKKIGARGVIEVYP
From the text: as §3

[12] = substrate: Oc1ccc(C=Cc2cc(O)cc(O)c2)cc1; assay: purified protein, by the assay type; settings: other: recombinant SbOMT1, substrate resveratrol; pH 7.5; 30.0 °C
[13] = recombinant SbOMT3, alkylresorcinols

T1 sequence (A8QW53 other isoform, or with tags, fused parts or gaps DUP296-296): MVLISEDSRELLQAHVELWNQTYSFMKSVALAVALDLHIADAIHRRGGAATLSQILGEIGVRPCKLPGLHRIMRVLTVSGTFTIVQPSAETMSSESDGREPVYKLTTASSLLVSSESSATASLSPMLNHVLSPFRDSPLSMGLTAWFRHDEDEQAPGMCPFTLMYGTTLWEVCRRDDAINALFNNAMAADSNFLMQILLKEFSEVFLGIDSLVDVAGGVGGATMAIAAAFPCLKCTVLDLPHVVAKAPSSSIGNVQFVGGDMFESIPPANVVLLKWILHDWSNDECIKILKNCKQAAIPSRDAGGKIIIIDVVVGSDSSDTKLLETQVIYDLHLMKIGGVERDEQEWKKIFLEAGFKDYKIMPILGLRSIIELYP

Molecule	Relative Activity (%) of Recombinant SbOMT3 [1]	Relative Activity (%) of Recombinant SbOMT1 [2] [%]	also measured
C=CCc1ccc(O)c(OC)c1 [Eugenol]	3.2 ± 0.5%	100 ± 5.2	–
CCCCc1cc(O)cc(O)c1 [5-n-Butyl-resorcinol]	42.0 ± 1.2%	1.1 ± 0.1	–
C[S+](CC[C@H](N)C(=O)[O-])C[C@H]1O[C@@H](n2cnc3c(N)ncnc32)[C@H](O)[C@@H]1O (stereo partly drawn) [SAM, S-Adenosyl-L-Methionine]	–	–	Km ([1]; read-out: Km): 67.5 µM
COc1cc(/C=C/C(=O)O)ccc1O [Ferulic acid]	3.5 ± 0.6%	3.1 ± 0.3	–
CCCCCCCc1cc(O)cc(O)c1 [5-n-Heptyl-resorcinol]	27.2 ± 1.3%	0	–
COc1cc(C)cc(O)c1 [Orcinol monomethyl ether]	3.5 ± 0.5%	49.6 ± 1.6	–
CCCCCCCCCc1cc(O)cc(O)c1 [5-n-Nonyl-resorcinol]	3.3 ± 0.8%	0	–
COc1cccc(O)c1 [Resorcinol monomethyl ether]	3.2 ± 0.7%	24.8 ± 1.1	–
COc1cc(/C=C/c2ccc(O)cc2)cc(OC)c1 [Pterostilbene]	–	–	cytotoxicity against cancer cell lines [3]: cytotoxic
SbOMT3 (Sorghum bicolor; DUP296-296)	–	–	Km [4]: 481 µM; Vmax [4]: 0.00055 µmol/min/mg; kcat [4]: 0.00039 s⁻¹; kcat/Km [4]: 0.81 M⁻¹ s⁻¹; Km [5]: 23 µM; Vmax [5]: 0.000173 µmol/min/mg; kcat [5]: 0.00012 s⁻¹; kcat/Km [5]: 5.2 M⁻¹ s⁻¹; Km [6]: 72 µM; Vmax [6]: 0.00042 µmol/min/mg; kcat [6]: 0.0003 s⁻¹; kcat/Km [6]: 4.2 M⁻¹ s⁻¹; Km [7]: 152 µM; Vmax [7]: 0.000653 µmol/min/mg; kcat [7]: 0.00047 s⁻¹; kcat/Km [7]: 3.1 M⁻¹ s⁻¹
COc1ccc(O)cc1 [4-Methoxyphenol]	3.3 ± 0.6%	8.3 ± 0.5	–
O=C(O)/C=C/c1ccc(O)c(O)c1 [Caffeic acid]	3.6 ± 0.6 3.6 ± 0.6%	–	–
CCCCCCc1cc(O)cc(O)c1 [5-n-Hexyl-resorcinol]	79.4 ± 7.6%	0	–
COc1ccc(C=Cc2cc(O)cc(O)c2)cc1 [3,5-dihydroxy-4′-methoxystilbene]	–	–	share of the product obtained from reaction of SbOMT1 with resveratrol [8]: 88%
CCCCCCCCCCCCCCCc1cc(O)cc(O)c1 [5-n-Pentadecyl-resorcinol]	5.0 ± 0.4%	<1.0	–
Oc1ccc(C=Cc2cc(O)cc(O)c2)cc1 [Resveratrol]	–	–	inhibition of human pathogens [9]: ineffective; inhibition of esca fungi (mycelial growth) [10]: did not inhibit mycelial growth; reaction of SbOMT2 with resveratrol [11]: did not react
O=C(O)/C=C/c1ccc(O)cc1 [p-Coumaric acid]	3.5 ± 0.4%	0	–
Cc1cc(O)cc(O)c1 [Orcinol]	4.5 ± 0.1%	1.3 ± 0.7	–
Oc1cccc(O)c1 [Resorcinol]	4.1 ± 0.1%	–	–
CCCCCc1cc(O)cc(O)c1 [5-n-Pentyl-resorcinol]	100 ± 2.2%	–	–
COc1ccccc1O [Guaiacol]	3.2 ± 0.6%	7.8 ± 0.5	–
Oc1ccccc1O [Catechol]	3.6 ± 0.6 3.6 ± 0.6%	–	–
CCCc1cc(O)cc(O)c1 [5-n-Propyl-resorcinol]	11.8 ± 0.2%	2.2 ± 0.9	Kcat [1, 13]: 1.9 s^−1 × 10^4; V max [1, 13]: 15.6 nmol/mg/h; Km [1]: 1440 µM
C=CC/C=C\C/C=C\CCCCCCCc1cc(O)cc(O)c1 [5-n-[8′, 11′, 14′]-Pentadecatrienyl-resorcinol]	14.9 ± 4.3%	–	activity of SbOMT3 relative to that for 5-pentadecyl resorcinol ([1]; higher than saturated side chain analogue of identical length): approximately 3 fold
B1	–	–	Km [12]: 16.9 ± 1.2 µM; Vmax [12]: 0.00014 µmol/min/mg; kcat [12]: 0.0001 s⁻¹; kcat/Km [12]: 5.9 M⁻¹ s⁻¹
